Reference: patent US20100216736A2, “2'-CYANOPYRIMIDINE NUCLEOSIDE COMPOUND” (Taiho Pharmaceutical Co., Ltd., priority 2006, published 2010)
≈ marks a conversion by molar mass, not a printed value.

What was measured:
[1] = tested on: Human colon cancer strain KM20C; assay: Antitumor test using tumor-subcutaneously-implanted nude mouse system upon oral administration (equimolar dose); format: in vivo, BALB/cA Jcl-nu mouse; conditions: once per day for 14 days, dose equimolar to 18 mg of CNDAC/kg of body weight per day, evaluated on the 29th day after grouping, vs untreated group
Method: Antitumor Test using Tumor-Subcutaneously-Implanted Nude Mouse System Upon Oral Administration
(§1) Human colon cancer strain KM20C subcutaneously subcultured in a BALB/cA Jcl-nu mouse (product of Clea Japan Inc.) was prepared into fragments of 2 mm×2 mm, and subcutaneously implanted into the backs of 6-week-old BALB/cA Jcl-nu mice. When the average tumor volume exceeded 100 mm^3, the length of each tumor was measured along the major axis and minor axis, and the tumor volume was calculated using the following equation. The mice were then divided into several groups to reduce variations in tumor volume among the groups (5 or 6 mice per group). Vt=½(Vl)×(Vs)^2, (Equation 1)
wherein Vt represents a tumor volume, Vl represents the length along the tumor major axis, and Vs represents the length along the tumor minor axis.
Test compounds were each dissolved or suspended in a 0.5% hydroxypropylmethylcellulose solution prepared with 100 mM citrate buffer (pH 5.0), and, from the day after the day of grouping, orally administered to the mice once per day for 14 days. The dose was set to be equimolar to 18 mg of CNDAC/kg of body weight per day.
On the 29th day after the day of grouping, with respect to the mice in each group, the longest diameter and shortest diameter of each of the subcutaneously implanted tumors were measured. The relative tumor volume (RTV) and the tumor growth inhibition rate (1R) were calculated using the following equation to evaluate antitumor effects. RTV=Vt1/Vt2, (Equation 2)
wherein RTV represents a relative tumor volume, Vt1 represents the tumor volume on the day of evaluation, and Vt2 represents the tumor volume on the day of grouping. IR(%)=[1−(RTVtest)/(RTVcont)]×100, (Equation 3)
wherein IR represents a tumor growth inhibition rate, RTVtest represents the average RTV value in a drug administration group, and RTVcont represents the average RTV value in an untreated group.

[2] = Measurement of water solubility; conditions: for solubility at 75 min: water, 37 °C, thermodynamic from solid
Method: Measurement of Water Solubility
Test compounds (2 mg or more) were each suspended in water (1 ml), then sonicated for 10 seconds, and incubated at 37° C. for 75 minutes. After filtration through a membrane filter (Millex-LG, 0.2 μm, product of Millipore Corporation), 100 μl of the obtained filtrate was diluted with acetonitrile (100 μl), and analyzed using a high performance liquid chromatograph apparatus.
The solubility of each test compound in water was calculated from the calibration curve.

[3] = tested on: Human colon cancer strain KM20C; assay: Antitumor test using tumor-subcutaneously-implanted nude mouse system upon oral administration at an equitoxic dose; format: in vivo, BALB/cA Jcl-nu mouse; conditions: once per day for 14 days; for tumor course after completion of administration (regrowth): 20th to 25th day after grouping (about 1 week after completion of administration)
Method: Antitumor Test of CNDAC, P-CNDAC, and Compounds 1 and 11 of the Present Invention using Tumor-Subcutaneously-Implanted Nude Mouse System Upon Oral Administration at an Equitoxic Dose.
as §1, with “On” for “When”, “15th day after the day of implantation,” for “average tumor volume exceeded 100 mm^3,”, “Vt=1/2(Vl)×(Vs)2” for “Vt=½(Vl)×(Vs)^2,”, “5) wherein Vt represents a tumor volume, Vl represents the length along the tumor major axis, and Vs represents the length along the tumor minor axis.” for “1)”
CNDAC, P-CNDAC, and Compounds 1 and 11 were each dissolved or suspended in a 0.5% hydroxypropylmethylcellulose solution prepared with 100 mM citrate buffer (pH 5.0), and, from the day after the day of grouping, orally administered at an equitoxic dose once per day for 14 days.
With respect to the mice in each group, the length of each of the subcutaneously implanted tumors was measured along the major axis and minor axis twice a week. RTV was calculated as a reference of tumor growth using the following equation to evaluate antitumor effects. RTV=Vt1/Vt2, (Equation 6)
wherein RTV represents a relative tumor volume, Vt1 represents the tumor volume on the day of evaluation, and Vt2 represents the tumor volume on the day of grouping.

[4] = Pharmacokinetic testing in SD (IGS) rats, oral administration, CNDAC serum concentration; format: in vivo; conditions: 10 mg/kg of body weight, rat, dose equivalent to 10 mg of CNDAC/kg of body weight, 0 to 8 hours after administration
Method: Pharmacokinetic Testing in SD (IGS) Rats
Test compounds were orally administered to SD (IGS) rats (product of Charles River Laboratories Japan, Inc.; 8 weeks old), and, based on the CNDAC serum concentration in the rats, orally administered absorbability and in vivo activation into CNDAC were evaluated.
In the morning of the test day, predetermined amounts of test compounds were each dissolved or suspended in a 0.5% hydroxypropylmethylcellulose solution prepared with 100 mM citrate buffer (pH 4.5), and orally administered. CNDAC was administered at a dose of 10 mg/kg of body weight, and other test compounds were administered at a dose equivalent to 10 mg of CNDAC/kg of body weight. Blood was collected from the jugular vein 0.5, 1, 2, 4, 6, and 8 hours after administration of the test compounds (two or three rats per point) to obtain serum. The serum concentrations of the compounds and CNDAC were measured using LC/MS, and the area under the curve (AUC) of the CNDAC serum concentration from 0 to 8 hours after administration were calculated.

solubility at 75 min [2]	melting point	SMILES	IR (%) tumor growth inhibition rate [1]	also measured
–	–	CCCCC/C=C\CCOC(=O)Nc1ccn([C@@H]2O[C@H](CO)[C@H](O)[C@@H]2C#N)c(=O)n1 [Compound 4, 4-N—[(Z)-3-Nonen-1-yloxycarbonyl]-2′-cyano-2′-deoxy-1-β-D-arabinofuranosylcytosine]	93%	–
> 50 µg/mL	154.1 °C	CCCCCCOC(=O)OC[C@H]1O[C@@H](n2ccc(N)nc2=O)[C@@H](C#N)[C@@H]1O [Compound 8, 5′-O-(n-Hexyloxycarbonyl)-2′-cyano-2′-deoxy-1-β-D-arabinofuranosylcytosine]	76%	–
21.1 µg/mL (≈ 49.9 µM)	66 °C	CCCCCCCCCOC(=O)Nc1ccn([C@@H]2O[C@H](CO)[C@@H](O)[C@@H]2C#N)c(=O)n1 [Compound 1, 4-N-(n-Nonyloxycarbonyl)-2′-cyano-2′-deoxy-1-β-D-arabinofuranosylcytosine]	96%	reduction of tumor volume (RTV), FIG. 1 [3]: greater reduction of tumor volume than CNDAC and P-CNDAC; tumor disappearance [3]: tumor disappearance was achieved in one of the five cases; tumor course after completion of administration (regrowth) [3]: the tumor size continued to reduce even after completion of administration
49.5 µg/mL (≈ 117 µM)	167.2 °C	CCCCC(CCCC)OC(=O)OC[C@H]1O[C@@H](n2ccc(N)nc2=O)[C@@H](C#N)[C@@H]1O [Compound 11, 5′-O-(Nonan-5-yloxycarbonyl)-2′-cyano-2′-deoxy-1-β-D-arabinofuranosylcytosine]	93%	reduction of tumor volume (RTV), FIG. 1 [3]: greater reduction of tumor volume than CNDAC and P-CNDAC; tumor course after completion of administration (regrowth) [3]: the tumor size continued to reduce even after completion of administration
–	113 °C	N#C[C@H]1[C@H](O)[C@@H](COC(=O)Oc2ccc(Cl)cc2)O[C@H]1n1ccc(N)nc1=O [Compound 17, 5′-O-(4-Chlorophenyloxycarbonyl)-2′-cyano-2′-deoxy-1-β-D-arabinofuranosylcytosine]	58%	–
–	72.4 °C	CC/C=C\CCCCCOC(=O)Nc1ccn([C@@H]2O[C@H](CO)[C@@H](O)[C@@H]2C#N)c(=O)n1 [Compound 3, 4-N—[(Z)-6-Nonen-1-yloxycarbonyl]-2′-cyano-2′-deoxy-1-β-D-arabinofuranosylcytosine]	–	–
–	71.1 °C	CCCCCC/C=C/COC(=O)Nc1ccn([C@@H]2O[C@H](CO)[C@@H](O)[C@@H]2C#N)c(=O)n1 [Compound 5, 4-N—[(E)-2-Nonen-1-yloxycarbonyl]-2′-cyano-2′-deoxy-1-β-D-arabinofuranosylcytosine]	–	–
–	–	CCCCCCCCCCCCCCCC(=O)Nc1ccn([C@@H]2O[C@H](CO)[C@@H](O)[C@@H]2C#N)c(=O)n1 [P-CNDAC, 4-N-palmitoyl-2′-cyano-2′-deoxy-1-β-D-arabinofuranosylcytosine, reference compound]	–	water solubility, in words ([2]; in water, 37° C.): low water solubility; Water Solubility ([2]; in water, 37° C., 75 minutes, filtrate analysed by HPLC): <0.5 µg/mL; tumor disappearance [3]: tumors did not disappear; tumor course after completion of administration (regrowth) [3]: tumor regrowth was observed
–	97 °C	CCCCCCCCCCOC(=O)Nc1ccn([C@@H]2O[C@H](CO)[C@@H](O)[C@@H]2C#N)c(=O)n1 [Compound 15, 4-N-(n-Decyloxycarbonyl)-2′-cyano-2′-deoxy-1-β-D-arabinofuranosylcytosine]	22%	–
–	182.7 °C (dec.)	CC(C)CC(CC(C)C)OC(=O)OC[C@H]1O[C@@H](n2ccc(N)nc2=O)[C@@H](C#N)[C@@H]1O [Compound 14, 5′-O-(2,6-Dimethylheptan-4-yloxycarbonyl)-2′-cyano-2′-deoxy-1-β-D-arabinofuranosylcytosine]	–	–
> 1000 µg/mL	–	N#C[C@H]1[C@H](O)[C@@H](CO)O[C@H]1n1ccc(N)nc1=O [CNDAC, 2′-cyano-2′-deoxy-1-β-D-arabinofuranosylcytosine, reference compound]	54%	water solubility, in words ([2]; in water, 37° C.): extremely high water solubility; AUC(0-t) [4]: 493 ng·h/mL; tumor disappearance [3]: tumors did not disappear; tumor course after completion of administration (regrowth) [3]: tumor regrowth was observed
–	83.6 °C	CCCCC(CCCC)OC(=O)Nc1ccn([C@@H]2O[C@H](CO)[C@@H](O)[C@@H]2C#N)c(=O)n1 [Compound 2, 4-N-(Nonan-5-yloxycarbonyl)-2′-cyano-2′-deoxy-1-β-D-arabinofuranosylcytosine]	–	–
–	67.5 °C	CCCCCCCCOC(=O)Nc1ccn([C@@H]2O[C@H](CO)[C@@H](O)[C@@H]2C#N)c(=O)n1 [Compound 16, 4-N-(n-Octyloxycarbonyl)-2′-cyano-2′-deoxy-1-β-D-arabinofuranosylcytosine]	38%	–
> 50 µg/mL	152.2 °C	CCCCCCCOC(=O)OC[C@H]1O[C@@H](n2ccc(N)nc2=O)[C@@H](C#N)[C@@H]1O [Compound 9, 5′-O-(n-Heptyloxycarbonyl)-2′-cyano-2′-deoxy-1-β-D-arabinofuranosylcytosine]	78%	–
> 50 µg/mL	143.1 °C	CCCCCCCCOC(=O)OC[C@H]1O[C@@H](n2ccc(N)nc2=O)[C@@H](C#N)[C@@H]1O [Compound 10, 5′-O-(n-Octyloxycarbonyl)-2′-cyano-2′-deoxy-1-β-D-arabinofuranosylcytosine]	89%	–
–	72.7 °C	C=CCCCCCCCOC(=O)Nc1ccn([C@@H]2O[C@H](CO)[C@@H](O)[C@@H]2C#N)c(=O)n1 [Compound 6, 4-N-(8-Nonen-1-yloxycarbonyl)-2′-cyano-2′-deoxy-1-β-D-arabinofuranosylcytosine]	–	–
> 50 µg/mL	–	CCCCCC/C=C\COC(=O)Nc1ccn([C@@H]2O[C@H](CO)[C@@H](O)[C@@H]2C#N)c(=O)n1 [Compound 7, 4-N—[(Z)-2-Nonen-1-yloxycarbonyl]-2′-cyano-2′-deoxy-1-β-D-arabinofuranosylcytosine]	96%	–
